Experimental data as given in patent publication US8552022B2, “Substituted cyclopropyl compounds, compositions containing such compounds and methods of treatment” (Merck Sharp & Dohme Corp., priority 2009, dated 2013).

Target: T1, GPR119 (UniProt Q8TDV5, S309L, species not given)
T1 sequence (Q8TDV5 1-335 S309L): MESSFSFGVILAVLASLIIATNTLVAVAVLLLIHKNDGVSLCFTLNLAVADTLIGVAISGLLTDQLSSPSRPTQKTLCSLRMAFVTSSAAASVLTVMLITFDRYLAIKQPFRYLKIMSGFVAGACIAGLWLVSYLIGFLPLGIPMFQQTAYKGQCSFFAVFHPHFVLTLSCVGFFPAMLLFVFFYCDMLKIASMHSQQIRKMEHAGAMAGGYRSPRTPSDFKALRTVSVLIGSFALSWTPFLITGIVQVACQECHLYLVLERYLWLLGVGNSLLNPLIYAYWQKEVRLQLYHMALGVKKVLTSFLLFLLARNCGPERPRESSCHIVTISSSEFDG
Assay: GPR119 signaling, cyclic AMP (cAMP) HTRF assay
Type: cell-based, human (S309L variant) or murine
Details: CHO cells with Gα15 and murine GPR119 or HEK293 Flp-In cells with human GPR119 S309L, read-out: EC50 (agonist activation of GPR119, cAMP)
Excerpt: The title compound was synthesized using 2-{2-[1-(5-chloropyrimidin-2-yl)piperidin-4-yl]cyclopropyl}ethyl 4-methylbenzenesulfonate from step 1 of this example by a general procedure analogous that described in Example 59. LRMS calc: 424.9; obs: 425.01 (M+1). Measurement of GPR119Signaling Using a Cyclic AMP (cAMP) Homogenous Time Resolved Fluorescence (HTRF) Assay
Chinese hamster ovary (CHO) cell lines stably transfected with the permissive guanine nucleotide binding protein alpha 15 (Gα15) and murine GPR119 were maintained in DMEM media containing FBS, penicillin-streptomycin, puromycin, and G418 (geneticin). Alternatively, human embryonic kidney (HEK)293 Flp-In cells (Invitrogen, Carlsbad, Calif.) were stably transfected with a human SNP variant (S309L) of GPR119 and maintained in DMEM media containing FBS, penicillin-streptomycin, and hygromycin. Agonist activation of the GPR119 receptor was measured in receptor transfected cells described above, treated with compounds of this invention, using a commercial homogenous time resolved fluorescence (HTRF) kit for measurement of cAMP (CisBio, Bedford, Mass.). The assay was performed in 96-well half-volume plates (murine) or 384-well plates (human) following the manufacturers instructions. Briefly, suspended cells were incubated with a dose titration of test compound at room temperature for 60 min, lysed, and incubated with HTRF reagents for an additional 60 min. The plate was read using an Envision multilabel reader (Perkin Elmer) adjusted to read time resolved fluorescence and the cAMP concentrations were extrapolated from a cAMP calibration curve. […] The concentration of test compound required to stimulate a half-maximal response (EC50), and efficacy as compared to an internal agonist control, was determined from a sigmoidal 4-parameter curve fit of the resulting plot of normalized activity versus compound concentration.

EC50	Structure (SMILES)
< 10 nM	O=C1c2ccc(NCC[C@@H]3C[C@@H]3C3CCN(c4ncc(Cl)cn4)CC3)cc2CN1C1CC1 [Ex 46, 5-[(2-{(1S,2S)-2-[1-(5-chloropyrimidin-2-yl)piperidin-4-yl]cyclopropyl}ethyl)amino]-2-cyclopropylisoindolin-1-one]
10 to 50 nM	CC(=O)Nc1cnc(NCC[C@@H]2C[C@@H]2C2CCN(c3ncc(Cl)cn3)CC2)cc1C [Ex 34, N-{6-[(2-{(1S,2S)-2-[1-(5-chloropyrimidin-2-yl)piperidin-4-yl]cyclopropyl}ethyl)amino]-4-methylpyridin-3-yl}acetamide]
10 to 50 nM	O=C(Cc1ccc(NCC[C@@H]2C[C@@H]2C2CCN(c3ncc(Cl)cn3)CC2)cc1)NC1CC1 [Ex 43, 2-{4-[(2-{(1S,2S)-2-[1-(5-chloropyrimidin-2-yl)piperidin-4-yl]cyclopropyl}ethyl)amino]phenyl}-N-cyclopropylacetamide]
< 10 nM	Cc1cc(NCC[C@@H]2C[C@@H]2C2CCN(c3ncc(Cl)cn3)CC2)ncc1NC(=O)C(C)(C)C [Ex 29, N-{6-[(2-{(1S,2S)-2-[1-(5-chloropyrimidin-2-yl)piperidin-4-yl]cyclopropyl}ethyl)amino]-4-methylpyridin-3-yl}-2,2-dimethyl propanamide]
< 10 nM	Cc1nnn(-c2ccc(NCC[C@@H]3C[C@@H]3C3CCN(c4ncc(Cl)cn4)CC3)cn2)n1 [Ex 17, N-(2-{(1S,2S)-2-[1-(5-chloropyrimidin-2-yl)piperidin-4-yl]cyclopropyl}ethyl)-6-(5-methyl-2H-tetrazol-2-yl)pyridin-3-amine]
10 to 50 nM	Clc1cnc(N2CCC([C@H]3C[C@H]3CCNc3ccc(-n4nccn4)nc3)CC2)nc1 [Ex 19, N-(2-{(1S,2S)-2-[1-(5-chloropyrimidin-2-yl)piperidin-4-yl]cyclopropyl}ethyl)-6-(2H-1,2,3-triazol-2-yl)pyridin-3-amine]
< 10 nM	O=C1Cc2cc(NCC[C@@H]3C[C@@H]3C3CCN(c4ncc(Cl)cn4)CC3)cc(F)c2N1 [Ex 53, 5-[(2-{(1S,2S)-2-[1-(5-chloropyrimidin-2-yl)piperidin-4-yl]cyclopropyl}ethyl)amino]-7-fluoro-1,3-dihydro-2H-indol-2-one]
< 10 nM	CS(=O)(=O)c1ccc(NCC[C@@H]2C[C@@H]2C2CCN(c3ncc(Cl)cn3)CC2)cc1 [Ex 7, N-(2-{(1S,2S)-2-[1-(5-chloropyrimidin-2-yl)piperidin-4-yl]cyclopropyl}ethyl)-4-(methylsulfonyl)aniline]
< 10 nM	Cc1cc(NCC[C@@H]2C[C@@H]2C2CCN(c3ncc(Cl)cn3)CC2)cnc1NC(=O)C(C)(C)C [Ex 31, N-{5-[(2-{(1S,2S)-2-[1-(5-chloropyrimidin-2-yl)piperidin-4-yl]cyclopropyl}ethyl)amino]-3-methylpyridin-2-yl}-2,2-dimethyl propanamide]
< 10 nM	Clc1cnc(N2CCC([C@H]3C[C@H]3CCNc3ccc(-n4ccnn4)cc3)CC2)nc1 [Ex 21, N-(2-{(1S,2S)-2-[1-(5-chloropyrimidin-2-yl)piperidin-4-yl]cyclopropyl}ethyl)-4-(1H-1,2,3-triazol-1-yl)aniline]
10 to 50 nM	Cn1cnnc1-c1ccc(NCC[C@@H]2C[C@@H]2C2CCN(c3ncc(Cl)cn3)CC2)cc1 [Ex 13, N-(2-{(1S,2S)-2-[1-(5-chloropyrimidin-2-yl)piperidin-4-yl]cyclopropyl}ethyl)-4-(4-methyl-4H-1,2,4-triazol-3-yl)aniline]
10 to 50 nM	O=C1CCCN1c1ccc(NCC[C@@H]2C[C@@H]2C2CCN(c3ncc(Cl)cn3)CC2)cn1 [Ex 20, 1-{5-[(2-{(1S,2S)-2-[1-(5-chloropyrimidin-2-yl)piperidin-4-yl]cyclopropyl}ethyl)amino]pyridin-2-yl}pyrrolidin-2-one]
< 10 nM	Clc1cnc(N2CCC([C@H]3C[C@H]3CCNc3ccc4[nH]ncc4c3)CC2)nc1 [Ex 42, N-(2-{(1S,2S)-2-[1-(5-chloropyrimidin-2-yl)piperidin-4-yl]cyclopropyl}ethyl)-1H-indazol-5-amine]
< 10 nM	CC1(C(=O)Nc2ccc(NCC[C@@H]3C[C@@H]3C3CCN(c4ncc(Cl)cn4)CC3)cn2)CC1 [Ex 38, N-{5-[(2-{(1S,2S)-2-[1-(5-chloropyrimidin-2-yl)piperidin-4-yl]cyclopropyl}ethyl)amino]pyridin-2-yl}-1-methylcyclopropane carboxamide]
< 10 nM	Clc1cnc(N2CCC([C@H]3C[C@H]3CCNc3ccc(-c4ccn[nH]4)cc3)CC2)nc1 [Ex 12, N-(2-{(1S,2S)-2-[1-(5-chloropyrimidin-2-yl)piperidin-4-yl]cyclopropyl}ethyl)-4-(1H-pyrazol-5-yl)aniline]
50 to 200 nM	CN(CC[C@@H]1C[C@@H]1C1CCN(c2ncc(Cl)cn2)CC1)c1ccc(S(C)(=O)=O)cc1 [Ex 9, N-(2-{(1S,2S)-2-[1-(5-chloropyrimidin-2-yl)piperidin-4-yl]cyclopropyl}ethyl)-N-methyl-4-(methylsulfonyl)aniline]
10 to 50 nM	Clc1cnc(N2CCC(C3CC3CCNc3ccc(-n4cncn4)nc3)CC2)nc1 (single isomer, unassigned) [Ex 59, trans-N-(2-{2-[1-(5-chloropyrimidin-2-yl)piperidin-4-yl]cyclopropyl}ethyl)-6-1H-1,2,4-triazol-1-yl)pyridin-3-amine]
10 to 50 nM	Cn1ncc2cc(NCC[C@@H]3C[C@@H]3C3CCN(c4ncc(Cl)cn4)CC3)ccc21 [Ex 48, N-(2-{(1S,2S)-2-[1-(5-chloropyrimidin-2-yl)piperidin-4-yl]cyclopropyl}ethyl)-1-methyl-1H-indazol-5-amine]
< 10 nM	Clc1cnc(N2CCC([C@H]3C[C@H]3CCNc3ccc(-n4ccnn4)cn3)CC2)nc1 [Ex 8, N-(2-{(1S,2S)-2-[1-(5-chloropyrimidin-2-yl)piperidin-4-yl]cyclopropyl}ethyl)-5-(1H-1,2,3-triazol-1-yl)pyridin-2-amine]
10 to 50 nM	Clc1cnc(N2CCC([C@H]3C[C@H]3CCNc3cnc(-n4cnnn4)nc3)CC2)nc1 [Ex 26, N-(2-{(1S,2S)-2-[1-(5-chloropyrimidin-2-yl)piperidin-4-yl]cyclopropyl}ethyl)-2-(1H-tetrazol-1-yl)pyrimidin-5-amine]
< 10 nM	Clc1cnc(N2CCC([C@H]3C[C@H]3CCNc3ccc(-n4cnnn4)cc3)CC2)nc1 [Ex 10, N-(2-{(1S,2S)-2-[1-(5-chloropyrimidin-2-yl)piperidin-4-yl]cyclopropyl}ethyl)-4-(1H-tetrazol-1-yl)aniline]
< 10 nM	CN1C(=O)Cc2cc(NCC[C@@H]3C[C@@H]3C3CCN(c4ncc(Cl)cn4)CC3)ccc21 [Ex 51, 5-[(2-{(1S,2S)-2-[1-(5-chloropyrimidin-2-yl)piperidin-4-yl]cyclopropyl}ethyl)amino]-1-methyl-1,3-dihydro-2H-indol-2-one]
50 to 200 nM	CS(=O)(=O)c1ccc(NCC[C@@H]2C[C@H]2C2CCN(c3ncc(Cl)cn3)CC2)cc1 (single isomer, unassigned) [Ex 58, trans-N-(2-{2-[1-(5-chloropyrimidin-2-yl)piperidin-4-yl]cyclopropyl}ethyl)-4-(methylsulfonyl)aniline]
< 10 nM	Clc1cnc(N2CCC([C@H]3C[C@H]3CCNc3ccc(-n4cncn4)nc3)CC2)nc1 [Ex 14, N-(2-{(1S,2S)-2-[1-(5-chloropyrimidin-2-yl)piperidin-4-yl]cyclopropyl}ethyl)-6-(1H-1,2,4-triazol-1-yl)pyridin-3-amine]
< 10 nM	Cc1nc(C#N)cc(NCC[C@H]2C[C@@H]2C2CCN(c3ncc(Cl)cn3)CC2)n1 (relative stereo) [Ex 61, trans 6-[(2-{2-[1-(5-chloropyrimidin-2-yl)piperidin-4-yl]cyclopropyl}ethyl)amino]-2-methylpyrimidine-4-carbonitrile]
< 10 nM	CC(C)(C)C(=O)Nc1ccc(NCC[C@@H]2C[C@@H]2C2CCN(c3ncc(Cl)cn3)CC2)cn1 [Ex 56, N-{5-[(2-{(1S,2S)-2-[1-(5-chloropyrimidin-2-yl)piperidin-4-yl]cyclopropyl}ethyl)amino]pyridin-2-yl}-2,2-dimethyl propanamide]
